Data taken from US20150359771A1, “TREATING PULMONARY CONDITIONS” (priority 2013, published 2015).

What was measured:
IL 6 [1] = test: IL 6 secretion from MLEC, direct treatment, ELISA; format: cell-based, mouse; settings: FIG. 8
Procedure: (§1) Cells were grown in Dulbecco's modified eagle's medium (DMEM) containing a growth factor supplement (Cell Biologics # M1 166) which included 5% fetal bovine serum (FBS), heparin, EGF, hydrocortisone, L-glutamine and antibiotics at 37° C. in 5% CO2.
(§2) Interleukin 1-β, eotaxin, and interleukin 6 were all measured via enzyme-linked immunosorbent assay using specific antibodies for each cytokine (Abcam, Cambridge, Mass.) and a horseradish peroxidase-based second antibody detection system, with chromogenic detection at 450 nm using a microplate reader (Synergy HT, BioTek Instruments, Winooski, Vt.).
(§3) Following treatment, western blots or ELISA assays were performed on the MLEC to determine the level of various indicators of airway diseases, such as NFκB protein expression, eotaxin secretion, IL1-β secretion, cellular IL6 content or secretion, adiponectin receptor 1 protein expression, and adiponectin receptor 2 protein expression.

NFκB = NFκB protein expression in mouse primary lung endothelial cells (MLEC), direct treatment, Western blot; format: cell-based; settings: theophylline 1 μM, leucine 0.5 mM, resveratrol 200 nM, FIG. 1
IL1-β = IL1-β secretion from MLEC, direct treatment, ELISA; format: cell-based, mouse; settings: theophylline 1 μM, leucine 0.5 mM, resveratrol 200 nM, FIG. 4
From the text: as §2

eotaxin = eotaxin secretion from MLEC, direct treatment, ELISA; format: cell-based, mouse; settings: theophylline 1 μM, leucine 0.5 mM, resveratrol 200 nM, FIG. 5
From the text: as §2

phospho-NFκB = phospho-NFκB protein expression in MLEC, direct treatment, Western blot; format: cell-based, mouse; settings: theophylline 1 μM, leucine 0.5 mM, resveratrol 200 nM
Procedure: as §1
For Western blot, 2 μg (for NFκB) or 4 μg (for phospho-NFκB) of protein from the cell lysate was resolved on 10% Tris/HCL polyacrylamide gels (Criterion precast gel, Bio-Rad Laboratories, Hercules, Calif.), transferred to PVDF membranes (NFκB and phospho-NFκB), incubated in blocking buffer (3% BSA in TBS) and then incubated with primary antibody, washed and incubated with secondary horseradish peroxidase-conjugated antibody.
as §3

IL 6 [2] = test: cellular IL 6 content in MLEC, direct treatment; format: cell-based, mouse; settings: theophylline 1 μM, leucine 0.5 mM, resveratrol 200 nM, FIG. 7
Procedure: as §1, §2, §3

Molecule: Cn1c(=O)c2[nH]cnc2n(C)c1=O [theophylline]
- effect on IL 6 secretion (in words) (IL 6 [1]): no significant independent effect
- effect on NFκB protein expression relative to control (NFκB): no independent effect
- effect on IL1-β secretion (in words) (IL1-β): no significant independent effect
- effect on eotaxin secretion (in words) (eotaxin): no significant effect
- effect on phospho-NFκB levels (phospho-NFκB): no effect
- effect on cellular expression of IL 6 (IL 6 [2]): unaffected

Molecule: TNFα
- effect on IL 6 secretion (in words) (IL 6 [1]): significant increase
- effect on IL1-β secretion (in words) (IL1-β): increase
- effect on eotaxin secretion (in words) (eotaxin): no significant effect
